For three compounds, MIC results are on record in patent publication US20100092443A1, “NOVEL COMBINATIONS OF NITROGENATED HETEROCYCLIC ANTIBACTERIAL COMPOUNDS WITH OTHER ANTIBACTERIAL COMPOUNDS AND THE USE OF SAME AS DRUGS” (priority 2008, published 2010).

Assay [1] has as its system E. coli. The experiment in a line: microbe, parasite or virus in culture. Type of assay: cell-based. The conditions noted are these: Escherichia coli. As to the method: (§1) In vitro activity, method of dilutions in liquid medium:
(§2) A series of test 96-well microtiter plates are prepared in which the same quantity of sterile nutritive medium is distributed. […] After 24 h of incubation in a 37° C. oven, growth inhibition is evaluated by transillumination, which makes it possible to determine the minimum inhibitory concentrations (MICS) expressed in μg/ml.

Assay [2] deals with E. cloacae. The experiment in a line: MIC, dilutions in liquid medium, alone and combined with NXL105. In kind it is cell-based. The conditions noted are these: Enterobacter cloacae, AmpC, read-out: MIC. On the procedure:
as §1, §2

For assay [3], the system named is K. pneumoniae. The assay is described as above. The conditions noted are these: Klebsiella pneumoniae, read-out: MIC. In kind it is cell-based. As to the method:
as §1, §2

The test system of assay [4] is K. oxytoca. Described as above. The conditions noted are these: Klebsiella oxytoca, read-out: MIC. In kind it is cell-based.
For assay [5], the system named is C. freundii. The description is as above. Type of assay: cell-based. Particulars: Citrobacter freundii, read-out: MIC.
Assay [6] deals with E. aerogenes. The description is as above. Type of assay: cell-based. The conditions noted are these: Klebsiella aerogenes, 24 h; E. aerogenes EAR2; Case-R + FEP-R; read-out: MIC.
The test system of assay [7] is P. aeruginosa (391 HT2). The assay is described as follows: MICs determined on microplates. Particulars: Pseudomonas aeruginosa; sensitive strain P. aeruginosa 391 HT2. In kind it is cell-based, Pseudomonas aeruginosa. As to the method: (§3) The minimum inhibitory concentrations (MICs) of the products to be tested (products alone and combinations) are determined in advance. • For each concentration of product to be tested as well as the control stock, an Erlenmeyer flask containing 18.5 ml Muller-Hinton medium (Ca^++) is prepared. • From an overnight culture in broth or a bacterial suspension of OD (optical density)=1, a 1/100 dilution is prepared. • The sample is cultured with agitation for 2 h at 37° C. • OD is measured: if >0.5, the sample is diluted to 1/10. • Each Erlenmeyer flask is inoculated with 1 ml of the agitated culture or its dilution. The initial inoculum should be 1×10^6 CFU/ml. • The various antibiotic solutions are added at a volume of 0.5 ml and 0.5 ml of medium in the control Erlenmeyer flask. • With a volume of 0.1 ml, the control Erlenmeyer flask is numbered=TO. • The flask is incubated at 37° C. with agitation. • At each sampling point (2, 4, 6, 24, 48 hours), a volume of 0.1 ml is sampled from each Erlenmeyer flask and numbered. • Plates for all the numbered samples are incubated (24 h-48 h) at 37° C.
Bactericidal activity was evaluated on a sensitive strain of P. aeruginosa (391 HT2)

The test system of assay [8] is P. aeruginosa (391 HT2). The experiment in a line: MICs in a volume of 10 ml, bactericidal conditions (exponential bacterial growth). Type of assay: cell-based, Pseudomonas aeruginosa. The conditions noted are these: Pseudomonas aeruginosa. As to the method: as §3
For the bactericidal tests, MICs are determined in a volume of 10 ml-bactericidal conditions (exponential bacterial growth): […]

Values after ≈ are worked out from the molar mass of the structure shown. Like-named read-outs stand apart in the source and are kept apart here.

With `C[C@H]1[C@H](NC(=O)/C(=N\OC(C)(C)C(=O)O)c2csc(N)n2)C(=O)N1S(=O)(=O)O` [Aztreonam], the MIC in assay [1] (24 h, E. coli 2138, KPC-2 + TEM-1) is 32 µg/mL; in assay [1] (24 h, E. coli (no alias), CTX-M-15 + TEM-1 + OXA-1) it was 4 µg/mL; in assay [1] (24 h, E. coli IND, VEB-1 + CMY-2), above 32 µg/mL; in assay [1] (24 h, E. coli TN06, CTX-M-2 + TEM-1), 8 µg/mL; in assay [1] (24 h, E. coli TN13, CTX-M-14 + CMY-2 + TEM-1), 16 µg/mL; in assay [1] (24 h, E. coli Tunisie clone E4, CTX-M-16 + TEM-1) it was 32 µg/mL. The MIC in assay [1] (E. coli (no alias), Cephalosporinase, read-out: MIC) was determined as 16 µg/mL (≈ 36.7 µM); in assay [1] (E. coli (no alias), SHV-4) it was 16 µg/mL (≈ 36.7 µM); in assay [1] (E. coli (no alias), TEM-3), 8 µg/mL (≈ 18.4 µM); in assay [2] (E. cloacae (no alias)), 16 µg/mL; in assay [2] (E. cloacae), 16 µg/mL; in assay [3] (24 h, K. pneumoniae 60, SHV-2 + TEM-2 + PER), 16 µg/mL. The MIC in assay [3] (24 h, K. pneumoniae 157, SHV-5 + TEM-26) amounted to 16 µg/mL; in assay [3] (24 h, K. pneumoniae 236, SHV-5 + TEM-10), 16 µg/mL; in assay [3] (24 h, K. pneumoniae 253, SHV-2 + TEM-12 + CTX-M-2), 16 µg/mL; in assay [3] (24 h, K. pneumoniae 427, SHV-1 + TEM-1B + CTX-M-3), 4 µg/mL; in assay [3] (24 h, K. pneumoniae 441, SHV-1 + TEM-2 + PER), 16 µg/mL; in assay [3] (24 h, K. pneumoniae 444, SHV-5 + TEM-2 + PER), 8 µg/mL. For the same compound, the MIC was found to be 8 µg/mL in assay [3] (24 h, K. pneumoniae 1734, FOX-3 + TEM-1); 16 µg/mL in assay [3] (24 h, K. pneumoniae 9701, CMY-4 + TEM-1); 16 µg/mL in assay [3] (24 h, K. pneumoniae Patient 1BHR, VIM-4 + CTX-M-15 = CMY-4 + TEM-1); 2 µg/mL in assay [3] (24 h, K. pneumoniae SLK54, ACC-1 + TEM-1); 16 µg/mL in assay [3] (24 h, K. pneumoniae TN58467, DHA-1 + SHV-2a + TEM-1); 8 µg/mL in assay [3] (ATCC700603, K. pneumoniae ATCC 700603, SHV-18). Moreover, the MIC was 16 µg/mL in assay [3] (K. pneumoniae 26, SHV-5); 16 µg/mL in assay [3] (K. pneumoniae KP04, CTX-M-14); 16 µg/mL in assay [3] (K. pneumoniae VAKP, KPC-2); above 32 µg/mL in assay [4] (K. oxytoca 1431, TEM-129); 32 µg/mL in assay [4] (K. oxytoca 16944, OXY-2, TEM-1); 16 µg/mL in assay [5] (24 h, C. freundii (no alias), AmpC + TEM-1). Besides, the MIC was 8 µg/mL in assay [5] (C. freundii (no alias, table row r121), AmpC); 32 µg/mL in assay [5] (C. freundii (no alias, table row r122), AmpC); 16 µg/mL in assay [5] (C. freundii (no alias, table row r123), AmpC); 4 µg/mL in assay [5] (C. freundii (no alias, table row r125), AmpC); 16 µg/mL in assay [6].

As to `O=C(O)c1cn(C2CC2)c2cc(N3CCNCC3)c(F)cc2c1=O` [Ciprofloxacine], in assay [7], the MIC was found to be 1 µg/mL.

Consider `NC[C@H]1O[C@H](O[C@H]2[C@H](O)[C@@H](O[C@H]3O[C@H](CO)[C@@H](O)[C@H](N)[C@H]3O)[C@H](N)C[C@@H]2N)[C@H](N)C[C@@H]1O` [Tobramycin], for which the MIC in assay [7] and in assay [8] was 1 µg/mL in each case.
